17 compounds from patent US20040014634A1, “Thieno[2,3-d]pyrimidinediones and their use as pharmaceuticals” (priority 2000, published 2004) can be followed below.

Structures can show the parent of a compound that is named as a salt.

`CC(C)Cn1c(=O)n(C)c(=O)c2c(S(=O)(=O)c3nncs3)c(Cc3ccccc3C(F)(F)F)sc21` [Example 39, 3-Methyl-1-(2-methylpropl)-5-(1,3,4-thiadiazol-2-ylsulfonyl)-6-[2-(trifluoromethyl)benzyl]-thieno[2,3-d]pyrimidine-2,4(1H,3H)-dione]: the melting point was 148 to 149 °C.

Turning to `CC(C)Cn1c(=O)n(C)c(=O)c2c(Sc3nc(Br)n[nH]3)c(Cc3ccccc3C(F)(F)F)sc21` [Example 40], the melting point fell in the range of 174 to 175 °C.

With `CC(C)Cn1c(=O)n(C)c(=O)c2c(Sc3nnc[nH]3)c(Cc3csc4ccccc34)sc21` [Example 50, 6-(1-Benzothien3-ylmethyl)-3-methyl-1-(2-methylpropyl)-5-(4H-1,2,4-triazol-3-ylthio)-thieno[2,3-d]pyrimidine-2,4(1H,3H)-dione], the melting point lay in the range of 237 to 238.2 °C.

In turn, `CC(C)Cn1c(=O)n(C)c(=O)c2c(Sc3nc[nH]n3)c(Cc3ccccc3C(F)(F)F)sc21` [Example 13, 3-Methyl-1-(2-methylpropyl)-5-(1H-1,2,4-triazol-3-ylthio)-6-[[2-(trifluoromethyl)phenyl]methyl]-thieno[2,3-d]pyrimidine-2,4(1H,3H)-dione] returned a melting point of 186 to 187 °C.

`CC(C)Cn1c(=O)n(C)c(=O)c2c(Sc3nccs3)c(C(O)c3ccnc4ccccc34)sc21` (centres unmarked) [Example 49, 6-[Hydroxy-(4-quinolinyl)-methyl]-3-methyl-1-(2-methylpropyl)-5-(1,3-thiazol-2-ylthio)-thieno[2,3-d]pyrimidine-2,4(1H,3H)-dione]: the melting point lay within 182.8 to 184 °C.

Take `CC(C)Cn1c(=O)n(C)c(=O)c2c(Sc3nccs3)c(Cc3ccccc3C(F)(F)F)sc21` [Example 29, 3-Methyl-1-(2-methylpropyl)-5-(2-thiazolylthio)-6-[[2-(trifluoromethyl)-phenyl]methyl]-thieno[2,3-d]pyrimidine-2,4(1H,3H)-dione]: the melting point lay within 141 to 144 °C.

Regarding `Cc1n[nH]c(Sc2c(Cc3ccccc3C(F)(F)F)sc3c2c(=O)n(C)c(=O)n3CC(C)C)n1` (as salt: hydrochloride) [Example 30, 3-Methyl-1-(2-methylpropyl)-5-[(5-methyl-1H-1,2,4-triazol-3yl)thiol-6-[[2-(trifluoromethyl)phenyl]methyl]-thieno[2,3-d]pyrimidine-2,4(1H,3H)-dione dihydrochloride], the melting point worked out at 154 °C.

Consider `CC(C)Cn1c(=O)n(C)c(=O)c2c(Sc3nncs3)c(Cc3ccccc3C(F)(F)F)sc21` [Example 32, 3-Methyl-1-(2-methylpropyl)-5-(1,3,4-thiadiazol-2-ylthio)-6-[2-(trifluoromethyl)benzyl]-thieno[2,3-d]pyrimidine-2,4(1H,3H)dione], for which the melting point was in the range of 169 to 170 °C.

Regarding `Cc1nc(Sc2c(C(=O)c3ccccc3C(F)(F)F)sc3c2c(=O)n(C)c(=O)n3CC(C)C)n[nH]1` [Example 18], the melting point is 220 to 222 °C.

Compound `CC(C)Cn1c(=O)n(C)c(=O)c2c(S(=O)(=O)c3nc[nH]n3)c(C(O)c3ccccc3C(F)(F)F)sc21` (centres unmarked) [Example 37, 6-[Hydroxy[2-(trifluoromethyl)phenyl]methyl]-3-methyl-1-(2-methylpropyl)-5-(1H-1,2,4-triazol-3-ylsulfonyl)-thieno[2,3-d]pyrimidine-2,4(1H,3H)-dione] had a melting point of 198 to 202 °C.

As to `CC(C)Cn1c(=O)n(C)c(=O)c2c(Sc3ncc[nH]3)c(Cc3ccccc3C(F)(F)F)sc21` [Example 31, 5-(1H-Imidazol-2-ylthio)-3-methyl-1-(2-methylpropyl)-6-[[2-(trifluoromethyl)phenyl]methyl]-thieno[2,3-d]pyrimidine-2,4(1H,3H)-dione], the melting point lay within 221 to 225 °C.

In the case of `CC(C)Cn1c(=O)n(C)c(=O)c2c(Sc3nccs3)c(C(=O)c3ccnc4ccccc34)sc21` [Example 48, 3-Methyl-1-(2-methylpropyl)-6-(4-quinolinylcarbonyl)-5-(1,3-thiazol-2-ylthio)-thieno[2,3-d]pyrimidine-2,4(1H,3H)-dione], the melting point was 166.8 to 167.6 °C.

Regarding `CC(C)Cn1c(=O)n(C)c(=O)c2c(Sc3ncc[nH]3)c(C(=O)c3ccccc3C(F)(F)F)sc21` [Example 22, 5-(1H-Imidazol-2-ylthio)-3-methyl-1-(2-methylpropyl)-6-[2-(trifluoromethyl)bezoyl]-thieno[2,3-d]pyrimidine-2,4(1H,3H)-dione], the melting point fell in the range of 123 to 127 °C.

With `CC(C)Cn1c(=O)n(C)c(=O)c2c(Sc3nnc(N)s3)c(Cc3ccccc3C(F)(F)F)sc21` [Example 33, 5-[(5-Amino-1,3,4-thiadiazol-2-yl)thio]-3-methyl-1-(2-methylpropyl)-6-[2-(trifluoromethyl)benzyl]-thieno[2,3-d]pyrimidine-2,4(1H,3H)-dione], the melting point fell in the range of 236 to 237 °C.

The compound `CC(C)Cn1c(=O)n(C)c(=O)c2c(Sc3n[nH]c(=O)[nH]3)c(Cc3ccccc3C(F)(F)F)sc21` [Example 41, 3-Methyl-1-(2-methylpropyl)-5-[(5-oxo-4,5-dilydro-1H-1,2,4-triazol-3-yl)thio]-6-[2-(trifluoromethyl)phenylmethyl]-thieno[2,3-d]pyrimidine-2,4(1H,3H)-dione] yielded a melting point of 205 to 211 °C.

Compound `CC(C)Cn1c(=O)n(C)c(=O)c2c(Sc3cccs3)c(Cn3cnc4ccccc43)sc21` [Example 51] registered a melting point of 198 °C.

Compound `CC(C)Cn1c(=O)n(C)c(=O)c2c(Sc3cccs3)c(CN3C(=O)c4ccccc4C3=O)sc21` [Example 54, 6-[(1,3-Dihydro-1,3-dioxo-2H-isoindol-2-yl)methyl]-3-methyl-1-(2-methylpropyl)-5-(2-thienylthio)-thieno[2,3-d]pyrimidine-2,4(1H,3H)-dione] yielded a melting point of 163 °C.
